Experimental data reported in patent publication US10683321B2, “4′-or nucleosides for the treatment of HCV” (IDENIX PHARMACEUTICALS LLC, priority 2013, dated 2020).

What was measured:
[1] = test system: HCV genotype 1b replicon in Huh-7-derived cell line (Zluc); experiment: HCV Replicon Assay (luciferase reporter); format: cell-based; conditions: Hepatitis C virus; Zluc cells, 72 hours of incubation, luciferase readout
Method: Huh-7-derived cell line (Zluc) that harbors an HCV genotype 1b replicon and a luciferase reporter gene was grown in Dulbecco's Modified Eagle Medium (DMEM) supplemented with 10% fetal bovine serum, 2 mM GlutaMAX, 1% MEM nonessential amino acids, 100 IU/mL penicillin, 100 μg/mL streptomycin, and 0.5 mg/mL Geneticin® (G418). For dose response testing the cells were seeded in 96-well plates at 7.5×10^3 cells per well in a volume of 50 μL, and incubated at 37° C./5% CO2. Drug solutions were made up freshly in Huh-7 media as 2× stocks. Ten additional 5-fold dilutions were prepared from these stocks in DMEM without G418. At least three hours after Zluc cells were seeded, drug treatment was initiated by adding 50 μL of drug dilutions to the plates in duplicate. Final concentrations of drug ranged from 100 μM to 0.0000512 μM. Cells were then incubated at 37° C./5% CO2. Alternatively, compounds were tested at two concentrations (1 μM and 10 μM). […] After 72 hours of incubation, the inhibition of HCV replication was measured by quantification of photons emitted after mono-oxygenation of 5′-fluoroluciferin to oxyfluoroluciferin by firefly luciferase. For this, media was removed from the plates via gentle tapping. Fifty microliters of ONE-glo luciferase assay reagent was added to each well. The plates were shaken gently for 3 min at room temperature and luminescence was measured on a Victor^3 V 1420 multilabel counter (Perkin Elmer) with a 1 second read time using a 700 nm cut-off filter. The EC50 values were calculated from dose response curves from the resulting best-fit equations determined by Microsoft Excel and XLfit 4.1 software. When screening at two fixed concentrations, the results were expressed as % inhibition at 1 μM and 10 μM.

[2] = Cytotoxicity evaluation, CellTiter-Blue Cell Viability Assay; format: cell-based; conditions: human, Zluc cells (HCV replicon)
Method: For cytotoxicity evaluation, Zluc cells were treated with compound as described herein, and cell viability was monitored using the CellTiter-Blue Cell Viability Assay (Promega) by adding 20 μL of the assay solution to each well. The plates were then incubated at 37° C./5% CO2 for at least 3 hours. Fluorescence was detected in plates using excitation and emission wavelengths of 560 and 590 nm, respectively, in a Victor^3 V 1420 multilabel counter (Perkin Elmer) and CC50 values were determined using Microsoft Excel and XLfit 4.1 software.

[3] = target: T1, HCV genotype 1b NS5B protein containing the S282T mutation (Hepatitis C virus genotype 1b, UniProt Q9WMX2, S2701T); experiment: HCV Polymerase Enzyme Assay, S282T mutant; format: biochemical
T1 construct: HCV genotype 1b NS5B protein were used to generate recombinant HCV polymerases (with a deletion of the 21 carboxy terminal amino acids); made in house
Source text: (§1) Test compounds in the form of nucleoside triphosphates were examined for inhibitory activity against purified HCV polymerase in a standard assay. Bacterial expression constructs encoding the approximately 65 kDa HCV genotype 1b NS5B protein were used to generate recombinant HCV polymerases (with a deletion of the 21 carboxy terminal amino acids). Both the wild-type genotype 1b protein and protein containing the S282T mutation were expressed and purified for use in the enzymatic activity assay.
(§2) The enzymatic activity assay measured the inhibitory effect of increasing concentrations of test compound on the incorporation of α-[^33P]-labeled nucleotide into trichloroacetic acid-precipitable material. Recombinant polymerase and synthetic RNA template were combined in reaction buffer containing ribonucleoside triphosphates, α-[^33P]-labeled nucleotide and eight concentrations of test compound in three-fold dilutions. Reactions were incubated for two hours at 30° C.
(§3) Reactions were terminated by the addition of ice-cold trichloroacetic acid and sodium pyrophosphate to promote precipitation of newly-synthesized ribonucleic acid. Precipitable material from the reactions was collected by filtration onto 96-well filter plates, washed extensively with water, and quantified by liquid scintillation.
(§4) The inhibitory activity of test compounds was determined by fitting results to dose-response curves using XLfit software.

[4] = target: T2, wild-type HCV genotype 1b NS5B protein (recombinant HCV polymerase) (Hepatitis C virus genotype 1b, UniProt Q9WMX2); experiment: HCV Polymerase Enzyme Assay, wild-type; format: biochemical
T2 construct: HCV genotype 1b NS5B protein were used to generate recombinant HCV polymerases (with a deletion of the 21 carboxy terminal amino acids); made in house
Source text: as §1, §2, §3, §4

CO[C@]1(COP(=O)(N[C@@H](C)C(=O)OC(C)C)OCCSC(=O)C(C)(C)C)O[C@@H](n2ccc(N)nc2=O)[C@H](O)[C@@H]1O (single isomer, unassigned) [Compound 16a]
EC50 [1]: > 10 µM | CC50 at 72 h [2]: > 50 µM

CO[C@]1(CO)O[C@@H](n2ccc(=O)[nH]c2=O)[C@H](O)[C@@H]1O [Compound 2a]
EC50 [1]: > 10 µM | CC50 at 72 h [2]: > 50 µM

CO[C@]1(CO)O[C@@H](n2ccc(=O)[nH]c2=O)[C@H](F)[C@@H]1O [Compound 2b]
EC50 [1]: > 10 µM | CC50 at 72 h [2]: > 50 µM

CO[C@]1(CO)O[C@@H](n2ccc(=O)[nH]c2=O)[C@H](O)[C@@H]1F [Compound 2c]
EC50 [1]: > 10 µM | CC50 at 72 h [2]: > 50 µM

CO[C@@]1(CO)C[C@@H](O)[C@H](n2ccc(=O)[nH]c2=O)O1 [Compound 2d]
EC50 [1]: > 10 µM | CC50 at 72 h [2]: > 50 µM

CO[C@]1(CO)O[C@@H](n2ccc(=O)[nH]c2=O)[C@H](O)[C@@H]1N=[N+]=[N-] [Compound 2e]
EC50 [1]: > 10 µM | CC50 at 72 h [2]: > 50 µM

CO[C@]1(CO)O[C@@H](n2ccc(N)nc2=O)[C@H](O)[C@@H]1O [Compound 5a2]
EC50 [1]: > 10 µM | CC50 at 72 h [2]: > 50 µM

CO[C@]1(CO)O[C@@H](n2ccc(N)nc2=O)[C@H](O)[C@@H]1F [Compound 5c]
EC50 [1]: > 10 µM | CC50 at 72 h [2]: > 50 µM

CCO[C@]1(CO)O[C@@H](n2ccc(=O)[nH]c2=O)[C@H](O)[C@@H]1O [Compound 6a]
EC50 [1]: > 10 µM | CC50 at 72 h [2]: > 50 µM

CC(C)O[C@]1(CO)O[C@@H](n2ccc(=O)[nH]c2=O)[C@H](O)[C@@H]1O [Compound 7a]
EC50 [1]: > 10 µM | CC50 at 72 h [2]: > 50 µM

CC(C)O[C@]1(CO)O[C@@H](n2ccc(=O)[nH]c2=O)[C@H](F)[C@@H]1O [Compound 7b]
EC50 [1]: > 10 µM | CC50 at 72 h [2]: > 50 µM

C#CCO[C@]1(CO)O[C@@H](n2ccc(=O)[nH]c2=O)[C@H](O)[C@@H]1O [Compound 8a]
EC50 [1]: > 10 µM | CC50 at 72 h [2]: > 50 µM

CO[C@]1(COP(=O)(O)OP(=O)(O)OP(=O)(O)O)O[C@@H](n2ccc(=O)[nH]c2=O)[C@H](O)[C@@H]1O [Compound 9a]
IC50 [3]: 0.25 to 1 µM | IC50 [4]: 0.25 to 1 µM

CO[C@]1(COP(=O)(O)OP(=O)(O)OP(=O)(O)O)O[C@@H](n2ccc(=O)[nH]c2=O)[C@H](F)[C@@H]1O [Compound 9b]
IC50 [4]: 1 to 10 µM

CO[C@]1(COP(=O)(O)OP(=O)(O)OP(=O)(O)O)O[C@@H](n2ccc(=O)[nH]c2=O)[C@H](O)[C@@H]1F [Compound 9c]
IC50 [4]: 0.25 to 1 µM

CO[C@@]1(COP(=O)(O)OP(=O)(O)OP(=O)(O)O)C[C@@H](O)[C@H](n2ccc(=O)[nH]c2=O)O1 [Compound 9d]
IC50 [4]: 1 to 10 µM

CO[C@]1(COP(=O)(O)OP(=O)(O)OP(=O)(O)O)O[C@@H](n2ccc(=O)[nH]c2=O)[C@H](O)[C@@H]1N [Compound 9e]
IC50 [4]: > 10 µM

CO[C@]1(COP(=O)(O)OP(=O)(O)OP(=O)(O)O)O[C@@H](n2ccc(N)nc2=O)[C@H](O)[C@@H]1O [Compound 9f]
IC50 [3]: 0.25 to 1 µM | IC50 [4]: < 0.25 µM

CO[C@]1(COP(=O)(O)OP(=O)(O)OP(=O)(O)O)O[C@@H](n2ccc(N)nc2=O)[C@H](O)[C@@H]1F [Compound 9g]
IC50 [3]: 0.25 to 1 µM | IC50 [4]: 0.25 to 1 µM

CO[C@]1(COP(=O)(N[C@H](C)C(=O)OC(C)C)Oc2ccccc2)O[C@@H](n2ccc(N)nc2=O)[C@H](O)[C@@H]1O (stereo partly drawn) [Compound 13a]
EC50 [1]: > 10 µM | CC50 at 72 h [2]: > 50 µM

CO[C@]1(COP(=O)(N[C@@H](C)C(=O)OC(C)C)OCCSC(=O)C(C)(C)C)O[C@@H](n2ccc(=O)[nH]c2=O)[C@H](O)[C@@H]1O (stereo partly drawn) [Compound 14a]
EC50 [1]: > 10 µM | CC50 at 72 h [2]: > 50 µM

CO[C@]1(COP(=O)(O)OP(=O)(O)O)O[C@@H](n2ccc(=O)[nH]c2=O)[C@H](O)[C@@H]1O [Compound 17a]
IC50 [4]: > 10 µM

CO[C@]1(COP(=O)(O)O)O[C@@H](n2ccc(=O)[nH]c2=O)[C@H](O)[C@@H]1O [Compound 18a]
IC50 [4]: > 10 µM

CO[C@]1(CO)O[C@@H](n2cnc3c(=O)[nH]c(N)nc32)[C@@H](N=[N+]=[N-])[C@@H]1O [Compound 20]
EC50 [1]: > 10 µM | CC50 at 72 h [2]: > 50 µM

CO[C@]1(CO)O[C@@H](n2cnc3c(=O)[nH]c(N)nc32)[C@H](N=[N+]=[N-])[C@@H]1O [Compound 21]
EC50 [1]: > 10 µM | CC50 at 72 h [2]: > 50 µM

CO[C@]1(CO)O[C@@H](n2ccc(=O)[nH]c2=O)[C@H](N=[N+]=[N-])[C@@H]1O [Compound 23]
EC50 [1]: > 10 µM | CC50 at 72 h [2]: > 50 µM

CO[C@H]1[C@H](n2ccc(=O)[nH]c2=O)O[C@@](CO)(OC)[C@H]1O [Compound 24]
EC50 [1]: > 10 µM | CC50 at 72 h [2]: > 50 µM

CO[C@]1(COP(=O)(N[C@H](C)C(=O)OC(C)C)Oc2ccccc2)O[C@@H](n2ccc(=O)[nH]c2=O)[C@H](N=[N+]=[N-])[C@@H]1O (stereo partly drawn) [Compound 123]
EC50 [1]: > 10 µM | CC50 at 72 h [2]: > 50 µM

CO[C@]1(COP(=O)(O)OP(=O)(O)OP(=O)(O)O)O[C@@H](n2cnc3c(=O)[nH]c(N)nc32)[C@@H](N=[N+]=[N-])[C@@H]1O [Compound 220]
IC50 [4]: 1 to 10 µM

CO[C@]1(COP(=O)(O)OP(=O)(O)OP(=O)(O)O)O[C@@H](n2cnc3c(=O)[nH]c(N)nc32)[C@H](F)[C@@H]1O [Compound 222]
IC50 [3]: 0.25 to 1 µM | IC50 [4]: < 0.25 µM

CO[C@]1(COP(=O)(O)OP(=O)(O)OP(=O)(O)O)O[C@@H](n2ccc(=O)[nH]c2=O)[C@H](N=[N+]=[N-])[C@@H]1O [Compound 223]
IC50 [4]: > 10 µM

CO[C@H]1[C@H](n2ccc(=O)[nH]c2=O)O[C@@](COP(=O)(O)OP(=O)(O)OP(=O)(O)O)(OC)[C@H]1O [Compound 224]
IC50 [4]: > 10 µM

CO[C@]1(COP(=O)(O)OP(=O)(O)OP(=O)(O)O)O[C@@H](n2cnc3c(=O)[nH]c(N)nc32)[C@@H](N)[C@@H]1O [Compound 230]
IC50 [4]: 1 to 10 µM

CO[C@]1(COP(=O)(O)OP(=O)(O)OP(=O)(O)O)O[C@@H](n2ccc(=O)[nH]c2=O)[C@H](N)[C@@H]1O [Compound 233]
IC50 [4]: 1 to 10 µM
